Key:
Assay type in all cases: cell-based
stomach PDX = test: Cell viability, stomach PDX (panel statement); conditions: text summary of Table 22; read-out: IC50, stomach PDX growth
Experimental: PDX-derived cell cultures were obtained from tumors explanted from mice and isolated by mechanical and enzymatic dissociation. […] Cells were harvested and seeded in 96-wells plates at a density of 1.25 to 5×10^3 cells/well for cytotoxicity assays. Cells were incubated 48 h at 37° C. prior to addition of test molecules and vehicle (DMSO, 0.1%) at desired final concentrations. Cell viability was assessed before drugs' addition (To) and 5 days after test molecules addition by measuring ATP cell content using CellTiter-Glo® Luminescent Cell Viability Assay (Promega) according to the manufacturer's instructions. Luciferase activity was measured on a luminometer (PerkinElmer® EnVision™). Each concentration of compounds was tested in triplicate.
Viability was calculated as a percentage of ATP value compared to vehicle treated controls.
For PDX primary cell cultures, the tumour tissue was washed with PBS containing antibiotic-antimycotic and non-tumour tissue and necrotic tumour tissues were separated. The tumour tissue was transferred to a new dish and cut into 1˜2 mm^3 fragments, resuspended in RPMI-1640 medium and centrifuged at 1,200 rpm for 6 min at room temperature. The pelleted material was resuspended with 15 mL of Tumour Cell Digestion Solution and incubated at 37° C. for 1 hour with agitation. […]

H69AR = test: Cell viability assay, H69AR; conditions: SCLC doxorubicin resistant cell line H69AR
Experimental: (§1) Antitumor activity of the compounds and doxorubicin as a positive control was assessed by using the CellTiter-Blue Cell Viability Assay (Promega, #G8082) or CellTiter-Glow® Luminescent Cell Viability assay (Promega #G7572) according to the manufacturer's instructions. The compounds were tested at 5 or 6 concentrations in half-log increments (highest concentration 30 μM or 100 μM) in duplicate or triplicate well conditions.
(§2) Tumor cells were grown at 37° C. in a humidified atmosphere with 5% CO2 in RPMI 1640 or DMEM medium, supplemented with 10% (v/v) fetal calf serum and 50 μg/ml gentamicin for up to 20 passages, and were passaged once or twice weekly. Cells were harvested using TrypLE or PBS buffer containing 1 mM EDTA, and the percentage of viable cells was determined using a CASY Model TI cell counter (OMNI Life Science). Cells were harvested from exponential phase cultures, counted and plated in 96 well flat-bottom microtiter plates at a cell density depending on the cell line's growth rate (4,000-20,000 cells/well depending on the cell line's growth rate, up to 60,000 for hematological cancer cell lines) in RPMI 1640 or DMEM medium supplemented with 10% (v/v) fetal calf serum and 50 μg/ml gentamicin (140 μl/well). […] Viability of cells was quantified by the CellTiter-Blue® cell viability assay (Promega G8081) or CellTiter-Glow® Luminescent Cell Viability assay (Promega #G7572). […]

Panc-1 = test: Cell viability assay, Panc-1; conditions: pancreatic carcinoma cell line Panc-1
Experimental: as §1, §2

COc1c(O)ccc2c(=O)c(O)c(-c3ccc(CCCC[P+](c4ccccc4)(c4ccccc4)c4ccccc4)cc3)oc12 [SND190, (4-(4-(3,7-Dihydroxy-8-methoxy-4-oxo-4H1-chromen-2-yl)phenyl)butyl)triphenylphosphonium bromide]
IC50 (stomach PDX): < 20 µM

O=c1cc(-c2ccc(CCC[P+](c3ccccc3)(c3ccccc3)c3ccccc3)cc2)oc2c(O)c(O)ccc12 [SND200, (3-(4-(7,8-Dihydroxy-4-oxo-4H1-chromen-2-yl)phenyl)propyl)triphenylphosphonium bromide]
IC50 (H69AR): 4 to 25 µM | IC50 (Panc-1): 1.33 µM

— patent US20240124503A1, “HETEROAROMATIC PHOSPHONIUM SALTS AND THEIR USE TREATING CANCER” (FLORATEK PHARMA S.A., priority 2021, published 2024)
